In patent US8686045B2 (priority 2005, dated 2014):
Entries after “also recorded” stand apart in the source; their conditions may differ. Where a SMILES comes first, the peptide text is derived from it. [ ]: non-standard residue; d: D form. pGlu = O=C1CC[CH](C(=O)O)N1

Tests used:
[1] = test system: E16 mouse hippocampal neurons; assay: Hippocampal neuron survival (morphology plus MTT conversion, 48 h); format: cell-based; settings: for EC50 / Emax: Mus musculus, Hippocampal neuron, 48 h; for EC50: read-out: EC50 of neuron survival dose-response; for Emax: read-out: intrinsic activity
Procedure: FIGS. 3A-3E are a series of neuron survival dose response curves of BDNF (FIG. 3A), Compound 1 (also referred to as BD2-1, FIG. 3B) Compound 2 (also referred to as BD2-2, FIG. 3C), Compound 3 (also referred to as BD2-3, FIG. 3D), and Compound 4 (also referred to as BD2-4, FIG. 3E) using Mouse E16 hippocampal neurons. Survival was determined as the total number of cells in each well that were both morphologically intact and filled with blue formazan MTT conversion product (Longo, F. M., Manthorpe, M. Xie, Y. M., and Varon, S. (1997) J Neurosci Res. 48, 1-17). Counts were normalized to survival achieved with 25 ng/mL BDNF. Survival was assessed at 48 hrs.
Hippocampal neurons were prepared from E16-17 mouse embryos as previously described (Yang, T. et al. (2003) J Neurosci 23, 3353-3363). Low density cultures were initiated in poly-L-lysine coated A/2 plates by adding 25 μl of cell suspension (2000 neurons/well; 12,500 cells/cm^2), 25 μl of DMEM containing 10% FBS, and different concentrations of recombinant BDNF, NGF, or TrkB-binding compounds to each well.
After 48 hours in culture, cell survival was assessed as previously described (Longo, F. M., Manthorpe, M., Xie, Y. M., Varon, S. (1997) J Neurosci Res 48, 1-17) using a combination of standard morphological criteria along with visual determination of whether a given cell converted MTT to its blue formazan product. Briefly, the number of surviving neurons was determined by counting the total number of cells in each well that were both morphologically intact and filed with blue product (Longo F. M., Manthorpe. M., Xie, Y. M. Varon, S. (1997) J Neurosci Res 48, 1-17). For each neurotrophin or compound concentration, duplicate wells were counted and the resulting values averaged. […] Counts were normalized to survival achieved with 25 ng/ml BDNF or to baseline survival. Fitting of dose-responsive curves was performed with SIGMAPLOT™ obtained from SYSTAT Software Inc. (Richmond, Calif., United States of America).
In order to understand the mechanisms of action of the BDNF loop 2 mimetics and to test the conjecture that they work via the targeted receptor, TrkB, the dose-dependent relationships of the survival-promoting activities of the mimetics was compared to BDNF using embryonic hippocampal neurons in culture conditions in which BDNF promotes neural survival. In the cultures, neurotrophic activity was mediated by BDNF principally through TrkB and p75^NTR, as they express little TrkA (Brann, A. B., et al. (1999) J Neurosci 19, 8199-8206; Bui, N. T., et al. (2002) J Neurochem 81, 594-605).

[2] = test system: E16 mouse hippocampal neurons; assay: as above; format: cell-based; settings: in the presence of a maximally effective BDNF concentration (50 ng/mL)
[3] = test system: E16-17 hippocampal neurons; assay: Aβ oligomer-induced neuronal degeneration (Alzheimer's disease model); format: cell-based, mouse
Procedure: Neuronal cell survival in culture medium (CM) and with the addition of 10 μM AβScrambled oligomer are shown in the two bars on the left-hand side of the graph […]. Cells were also treated with 10 μM Aβ1-42 alone or in combination with NGF (100 ng/mL), NGF mimetic LM11A-31 (100 nM), a combination of NGF and LM11A-31, Compound 4 (BD2-4, 500 nM), Compound 24 (BD2-24, 500 nM), or either 20 or 100 ng/mL BDNF, as indicated under each bar. […] Mean+SE are shown and ***p<0.001 for survival above CM baseline.
The ability of the BDNF mimetics to prevent Aβ-induced neuronal degeneration was tested as a model of the compounds' ability to treat Alzheimer's disease. E16-17 hippocampal neurons were matured for 6 days and then incubated for 3 days with the indicated combinations of Aβ oligomer preparations (Dahigren, K. N., et al. (2002) J Biol Chem 277, 32046-32053), neurotrophins and neurotrophin mimetics. Following the three day incubation, neuronal survival was assessed using standard morphological criteria (Massa, S. M., et al. (2006) J Neurosci 26, 5288-5300.).

DARP32-positive neurons = assay: Quinolinic acid-induced death, DARP32-positive neurons only; format: cell-based, mouse
Procedure: FIG. 6C is a bar graph of the results of a study similar to that described for FIG. 6B only using Darp32-positive neurons.
A study similar to the one shown in FIG. 6B was conducted in which only DARP32-positive neurons were assessed. DARP32-positive neurons represent the population within the striatum that are particularly vulnerable in HD.

TrkA = biological target: T1, TrkA (Homo sapiens, UniProt P04629); assay: Trk phosphorylation at Y490, Western blot, NIH3T3 cells expressing TrkA; format: cell-based
T1 construct: expressed in transfected cells; host or cells: NIH3T3
Procedure: (§1) CM represents culture medium.
(§2) Western blots were performed as described previously (Yang, T. et al. (2003) J Neurosci 23, 3353-3363). Western blot signals were detected using the ECL Chemiluminescence System obtained by Amersham (Piscataway, N.J., United States of America) (Yang, T. et al. (2003) J Neurosci 23, 3353-3363). To detect the presence of anti-Trk antibodies, blots were probed with horseradish peroxidase-linked goat anti-rabbit IgG obtained from Amersham/Pharmacia Biotech (Piscataway, N.J., United States of America). Signals were detected by the ECL chemiluminescence system obtained from Amersham Biosciences (Piscataway, N.J., United States of America). To control for variation in protein loading, the blot was stripped and reprobed with β-actin monoclonal antibody obtained from Sigma (St. Louis, Mo., United States of America).
(§3) In order to assess the interactions of the BDNF loop 2 mimetic compounds with TrkB receptors, the ability of Compound 4 to activate TrkA, TrkB, and TrkC was compared in a series of Western blotting experiments.
(§4) In the bottom two panels of FIG. 5A, NIH3T3 cells expressing TrkA were used.

TrkC = biological target: T2, TrkC (Homo sapiens, UniProt Q16288); assay: Trk phosphorylation at Y490, Western blot, NIH3T3 cells expressing TrkC; format: cell-based
T2 construct: expressed in transfected cells; host or cells: NIH3T3
Procedure: FIG. 5B is a digital composite image of Western blots monitoring TrkC activation as indicated by promotion of Trk phosphorylation at Y490 in NIH3T3 cells expressing TrkC. […] CM represents culture medium.
as §2, §3
In FIG. 5B, NIH3T3 cells expressing TrkC were used. The bottom panel indicates the total amount of TrkC present by probing with anti-TrkC antibodies.

[4] = test system: human SH-SY5Y neuroblastoma cells
Text: Exposure of SH-SY5Y cells to 1-methyl-4-phenylpyridinium (MPP^+) with resulting cell death is a well-characterized model of Parkinson's disease (PD). […] BDNF has also been previously shown to protect dopaminergic neurons. Further, MPP^+ causes a PD-like condition in primates.
For the Parkinson's disease model assays, human SH-SY5Y cells were used after terminal differentiation into a dopaminergic phenotype (Presgraves. S. P., et al. (2004) Exp Neruol 190, 157-170). Human SH-SY5Y neuroblastoma cells were propagated to confluence in Dulbecco's Modified Eagle's media (DMEM) supplemented with 10% fetal calf serum, 100 μg/mL penicillin, 100 μg/mL streptomycin, 0.25 μg/mL amphotericin B, and […] non-essential amino acids and then sub-cultured for differentiation. For differentiation, the cells were incubated in same media containing 10 μM retinoic acid for 3 days; then the media was removed and replaced with media containing 160 nM of the phorbol ester 12-O-tetradecanoyl-phorbol-13-acetate (TPA) for 3 days of differentiation. The cells were then administered a range dose of BD2-4 or BDNF (1×10^−12 M to […]) in DMEM for 30 mins for three days prior to addition of 100 μM MPP^+. Following transfer of MPP^+ to the media, sister cultures were tested at 6, 12, 24, and 48 hrs for the cytotoxicity of MPP^+ as measured by the MTT and lactate dehydrogenase method (LDH) assays which accurately measure different aspects of cell death. In addition, the neuroprotective effects of a fixed dose of BD2-4 and BDNF on MPP^+ induced cell death were tested for in the presence and absence of TrkB inhibitor K252a (200 nM).

TrkB = biological target: T3, TrkB (Homo sapiens, UniProt Q16620); assay: Trk phosphorylation at Y490, Western blot, NIH3T3 cells expressing TrkB; format: cell-based
T3 construct: expressed in transfected cells; host or cells: NIH3T3
Procedure: as §1, §2, §3, §4

[5] = test system: mouse E16 striatal neurons
Text: Bars indicate mean±s.e.m.
CM represents culture medium and QUIN represents quinolinic acid. Bars indicate mean±s.e.m and *** indicates p<0.005 student t test.
The K252a inhibitor is a well-characterized inhibitor of TrkB receptor activation.

T1 sequence (P04629 33-796, species assumed): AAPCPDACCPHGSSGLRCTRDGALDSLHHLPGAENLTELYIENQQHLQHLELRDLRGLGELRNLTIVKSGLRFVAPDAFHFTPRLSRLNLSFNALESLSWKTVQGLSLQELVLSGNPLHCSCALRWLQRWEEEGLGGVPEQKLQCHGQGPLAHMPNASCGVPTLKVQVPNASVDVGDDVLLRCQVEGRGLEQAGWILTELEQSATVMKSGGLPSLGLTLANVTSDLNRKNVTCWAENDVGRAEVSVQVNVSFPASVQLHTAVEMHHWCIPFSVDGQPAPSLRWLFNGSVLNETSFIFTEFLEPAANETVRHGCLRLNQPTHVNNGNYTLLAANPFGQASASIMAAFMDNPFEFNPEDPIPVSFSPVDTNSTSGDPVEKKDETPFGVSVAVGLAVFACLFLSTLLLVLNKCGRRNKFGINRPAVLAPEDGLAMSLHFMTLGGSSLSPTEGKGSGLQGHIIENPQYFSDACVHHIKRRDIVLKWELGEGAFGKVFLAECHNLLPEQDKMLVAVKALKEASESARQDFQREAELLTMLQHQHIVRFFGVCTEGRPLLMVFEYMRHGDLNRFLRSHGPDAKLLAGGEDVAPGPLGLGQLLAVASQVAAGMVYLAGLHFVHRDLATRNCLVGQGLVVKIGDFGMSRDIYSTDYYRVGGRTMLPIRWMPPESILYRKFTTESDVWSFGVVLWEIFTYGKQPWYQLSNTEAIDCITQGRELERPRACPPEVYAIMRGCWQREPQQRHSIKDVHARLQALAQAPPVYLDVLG
T2 sequence (Q16288 32-839, species assumed): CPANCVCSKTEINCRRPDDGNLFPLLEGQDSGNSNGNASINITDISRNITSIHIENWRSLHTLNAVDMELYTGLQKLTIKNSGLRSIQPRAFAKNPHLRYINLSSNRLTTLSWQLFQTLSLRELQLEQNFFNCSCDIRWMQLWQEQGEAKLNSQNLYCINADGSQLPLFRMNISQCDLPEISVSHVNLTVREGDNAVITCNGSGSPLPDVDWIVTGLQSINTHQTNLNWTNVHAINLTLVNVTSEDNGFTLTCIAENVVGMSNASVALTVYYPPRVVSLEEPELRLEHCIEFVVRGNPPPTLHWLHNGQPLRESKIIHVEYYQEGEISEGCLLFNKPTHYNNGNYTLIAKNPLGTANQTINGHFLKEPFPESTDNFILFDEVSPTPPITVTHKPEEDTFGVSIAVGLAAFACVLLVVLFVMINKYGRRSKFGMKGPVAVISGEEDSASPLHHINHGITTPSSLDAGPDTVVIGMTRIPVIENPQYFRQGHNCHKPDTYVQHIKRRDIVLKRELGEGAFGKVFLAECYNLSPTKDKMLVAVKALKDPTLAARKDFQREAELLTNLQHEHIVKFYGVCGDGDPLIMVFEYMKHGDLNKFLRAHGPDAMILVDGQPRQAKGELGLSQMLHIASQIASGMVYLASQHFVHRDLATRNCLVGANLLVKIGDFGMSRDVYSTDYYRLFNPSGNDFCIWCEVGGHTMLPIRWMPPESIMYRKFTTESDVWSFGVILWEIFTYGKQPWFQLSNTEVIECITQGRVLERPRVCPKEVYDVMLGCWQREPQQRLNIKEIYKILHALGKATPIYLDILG
T3 sequence (Q16620 32-822, species assumed): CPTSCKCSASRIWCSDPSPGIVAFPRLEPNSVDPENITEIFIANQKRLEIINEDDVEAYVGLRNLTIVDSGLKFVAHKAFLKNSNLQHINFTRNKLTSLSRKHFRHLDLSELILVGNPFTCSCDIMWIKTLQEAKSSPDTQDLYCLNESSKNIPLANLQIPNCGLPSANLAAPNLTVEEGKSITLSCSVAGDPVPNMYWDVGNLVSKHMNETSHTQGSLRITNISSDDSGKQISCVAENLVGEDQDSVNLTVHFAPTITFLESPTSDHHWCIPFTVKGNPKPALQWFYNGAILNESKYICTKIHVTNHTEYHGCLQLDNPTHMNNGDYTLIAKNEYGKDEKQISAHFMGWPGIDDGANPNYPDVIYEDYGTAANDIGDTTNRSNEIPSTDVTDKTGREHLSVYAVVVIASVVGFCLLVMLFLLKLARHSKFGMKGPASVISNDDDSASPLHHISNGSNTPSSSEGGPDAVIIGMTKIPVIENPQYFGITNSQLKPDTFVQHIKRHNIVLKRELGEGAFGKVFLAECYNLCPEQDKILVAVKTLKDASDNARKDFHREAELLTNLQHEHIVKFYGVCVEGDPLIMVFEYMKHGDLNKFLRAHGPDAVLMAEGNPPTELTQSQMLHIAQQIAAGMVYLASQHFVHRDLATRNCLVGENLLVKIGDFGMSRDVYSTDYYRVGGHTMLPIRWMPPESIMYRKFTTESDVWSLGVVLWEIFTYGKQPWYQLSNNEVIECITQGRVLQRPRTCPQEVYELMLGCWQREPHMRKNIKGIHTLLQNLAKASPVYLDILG

**Q.** Which results are given for `COC(=O)C(Cc1c[nH]c2ccccc12)NC(=O)C(Cc1c[nH]cn1)NC(=O)C1CCC(=O)N1` (stereo not drawn) [Compound 1] ([pGlu]-His-Trp-OMe; configuration not given here)?
**A.** EC50 [1]: 0.1 to 1 nM; Emax [1]: 50 to 200%

**Q.** `NC(=O)NN=C1c2cc(S(=O)(=O)NCCO)ccc2-c2ccc(S(=O)(=O)NCCO)cc21` [Compound 2] was tested. Which EC50 [1] did it give?
**A.** 0.1 to 1 nM

**Q.** What about the Emax [1] of the same compound?
**A.** 50 to 200%

**Q.** Which EC50 [1] does the source give for `CC(=O)Nc1ccc(/C=C(\C#N)c2nn(CCO)c(N)c2C#N)cc1` [Compound 3] here?
**A.** 0.1 to 1 nM

**Q.** And the Emax [1]?
**A.** 50 to 200%

**Q.** For `O=C(NCCO)c1cc(C(=O)NCCO)cc(C(=O)NCCO)c1` [Compound 4], which “effect on BDNF activity (partial agonism)” value [2] is on record?
**A.** partial agonist of BDNF; also recorded: causes an inhibition of BDNF activity

**Q.** What about the “blocking of Aβ-induced degeneration” value [3] of the same compound?
**A.** as effective as BDNF in blocking Aβ-induced degeneration

**Q.** And the “prevention of death of hippocampal neurons / neurotrophic effect” value ([1]; E16 hippocampal neurons)?
**A.** neurotrophic effects similar to that of BDNF; also recorded: prevents the death of E16 hippocampal neurons

**Q.** What about the EC50 [1] of the same compound?
**A.** 0.1 to 1 nM

**Q.** What about the Emax [1] of the same compound?
**A.** 50 to 200%

**Q.** And the “protection of DARP32-positive neurons” value (DARP32-positive neurons; quinolinic acid-induced death)?
**A.** protects DARP32-positive neurons with an efficacy similar to that of BDNF

**Q.** And the “TrkA activation (Trk phosphorylation at Y490)” value (TrkA)?
**A.** not TrkA; also recorded: do not

**Q.** And the “TrkC activation (Trk phosphorylation at Y490)” value (TrkC)?
**A.** do not activate TrkC

**Q.** What about the “block of death-inducing activity of MPP+” value ([4]; MPP+ 100 μM) of the same compound?
**A.** significantly blocked to a similar extent

**Q.** What about the “TrkB activation (Trk phosphorylation at Y490)” value (TrkB) of the same compound?
**A.** activate TrkB

**Q.** With `COc1ccc(-c2csc(N/N=C/c3ccc(O)cc3O)n2)cc1` [Compound 24] as the compound, how does the “blocking of Aβ-induced degeneration” value [3] read?
**A.** as effective as BDNF in blocking Aβ-induced degeneration

**Q.** With `COC(=O)[C@@]1(O)C[C@H]2O[C@]1(C)n1c3ccccc3c3c4c(c5c6ccccc6n2c5c31)C(=O)NC4` [Compound K252a] as the compound, how does the “effect of K252a on quinolinic acid-induced death” value ([5]; K252a without BDNF or BD2-4) read?
**A.** no effect on quinolinic acid-induced death

**Q.** And the “effect of K252a on prevention of death by BDNF and BD2-4” value ([5]; quinolinic acid-treated striatal neurons)?
**A.** block the ability of BDNF and BD2-4 to prevent death

**Q.** What about the “effect of K252a on prevention of cell death by BDNF and BD2-4” value (DARP32-positive neurons; DARP32-positive neurons) of the same compound?
**A.** decreased the ability of BDNF and BD2-4 to prevent cell death

**Q.** What about the “effect on cell survival, inhibitor alone” value ([4]; K252a (200 nM) versus culture medium alone) of the same compound?
**A.** small effect on lowering cell survival

**Q.** For `CC[C@H](C)[C@H](N)C(=O)NCCN1CCOCC1` [LM11A-31, reference compound], which “blocking of Aβ-induced degeneration” value [3] is on record?
**A.** blocked Aβ-induced degeneration

**Q.** And the “blocking activity in combination with NGF” value ([3]; LM11A-31 100 nM plus NGF 100 ng/mL, 10 μM Aβ1-42)?
**A.** blocked by NGF

**Q.** For `C[n+]1ccc(-c2ccccc2)cc1` [MPP^+, 1-methyl-4-phenylpyridinium], which “cell death, toxin alone” value ([4]; MPP+ 100 μM) is on record?
**A.** promotes death of essentially all cells

**Q.** For `O=C(O)c1cccnc1C(=O)O` [quinolinic acid], which death of neurons ([5]; quinolinic acid at 7.5 mM versus culture medium alone) is on record?
**A.** approximately 50%
